Among the data in patent publication US8802694B2, “3,6-diazabicyclo[3.1.1]heptanes as neuronal nicotinic acetycholine receptor ligands” (Targacept, Inc., priority 2009, dated 2014) are Ki values, retold here.

Where two headings read alike, the source gives them in different places.

One assay concerns the target T1, α6β3β4α5 (Homo sapiens, UniProt P30926+Q15825).
T1 construct: host or cells: SH-EP1
Description: Competition binding to α6β3β4α5 receptors in membranes of SH-EP1/α6β3β4α5 cells ([3H]-epibatidine). To be noted: membrane competition binding.

The next assay deals with T2, Human α4β2 (Homo sapiens, UniProt P17787+P43681).
T2 construct: host or cells: SH-EP1
Put plainly: Competition binding to human α4β2 receptors in membranes of SH-EP1/human α4β2 cells ([3H]-nicotine).

For another assay, the target named is T3, Rat α4β2 (Rattus norvegicus, UniProt P09483+P12390).
T3 construct: Rat cortices were obtained from Analytical Biological Services; tissue Analytical Biological Services, Incorporated (ABS, Wilmington, Del.); host or cells: rat cortex (female Sprague-Dawley)
Put plainly: Competition binding to rat α4β2 receptors in rat cortical membranes. How it is done: Preparation of membranes from rat tissues. Rat cortices were obtained from Analytical Biological Services, Incorporated (ABS, Wilmington, Del.). Tissues were dissected from female Sprague-Dawley rats, frozen and shipped on dry ice. Tissues were stored at −20° C. until needed for membrane preparation. […] The resulting homogenate was centrifuged at 40,000 g for 20 minutes at 4° C. and the resulting pellet was resuspended in 20 volumes of ice-cold water. After 60-minute incubation at 4° C., a new pellet was collected by centrifugation at 40,000 g for 20 minutes at 4° C. The final pellet was resuspended in preparative buffer and stored at −20° C. On the day of the assay, tissue was thawed, centrifuged at 40,000 g for 20 minutes and then resuspended in PBS (Dulbecco's Phosphate Buffered Saline, Life Technologies, pH 7.4) to a final concentration of 2-3 mg protein/mL. Protein concentrations were determined using the Pierce BCA Protein Assay kit (Pierce Biotechnology, Rockford, Ill.), with bovine serum albumin as the standard.
Competition binding to receptors in membrane preparations. […] In brief, membranes were reconstituted from frozen stocks (approximately 0.2 mg protein) and incubated for 2 h on ice in […] assay buffer (PBS) in the presence of competitor compound (0.001 nM to […]) and radioligand. [^3H]-nicotine (L-(−)-[N-methyl-3H]-nicotine, 69.5 Ci/mmol, Perkin-Elmer Life Sciences) was used for human α4β2 binding studies. [^3H]-epibatidine (52 Ci/mmol, Perkin-Elmer Life Sciences) was used for binding studies at the other receptor subtypes. […] Filters were washed 3 times and the radioactivity retained was determined by liquid scintillation counting.
Binding data analysis. Binding data were expressed as percent total control binding. Replicates for each point were averaged and plotted against the log of drug concentration.

[1] abbreviates: Human α4β2 Ki, membrane competition binding.
The mark [2] stands for this setting: Rat α4β2 Ki, rat cortex membranes.
Setting [3] is: membrane competition binding, read-out: Human α4β2 Ki.

With `O=C(CC(F)(F)F)N1CC2CC(C1)N2` [3-(2,2,2-trifluoroethyl)carbonyl-3,6-diazabicyclo[3.1.1]heptane], the Ki stood at 1700 nM on α6β3β4α5 (read-out: α6β3β4α5 Ki), 11 nM at Human α4β2 (setting [1]) and 25 nM at Rat α4β2 (setting [2]).

Take `O=C(c1ccc(Br)o1)N1CC2CC(C1)N2` [3-(2-bromofuran-5-yl)carbonyl-3,6-diazabicyclo[3.1.1]heptane]: the results for the inhibition constant (Ki) at α6β3β4α5 (read-out: α6β3β4α5 Ki), at Human α4β2 (setting [1]) and at Rat α4β2 (setting [2]) were 1800 nM, 25 nM and 83 nM, respectively.

`O=C(c1cc(Br)co1)N1CC2CC(C1)N2` [3-(3-bromofuran-5-yl)carbonyl-3,6-diazabicyclo[3.1.1]heptane]: the Ki at α6β3β4α5 (read-out: α6β3β4α5 Ki) was 2700 nM; on Human α4β2 (setting [1]) it was 35 nM; at Rat α4β2 (setting [2]), 80 nM.

Regarding `O=C(c1occc1Cl)N1CC2CC(C1)N2` [3-(3-chlorofuran-2-yl)carbonyl-3,6-diazabicyclo[3.1.1]heptane], the Ki on α6β3β4α5 (read-out: α6β3β4α5 Ki) turned out to be 2400 nM; at Human α4β2 (read-out: Human α4β2 Ki, membrane competition binding) it was 7.9 nM; at Rat α4β2 (read-out: Rat α4β2 Ki, rat cortex membranes), 56 nM.

Regarding `O=C(C1CC1)N1CC2CC(C1)N2` [3-cyclopropylcarbonyl-3,6-diazabicyclo[3.1.1]heptane], the results for the inhibition constant Ki at α6β3β4α5 (α6β3β4α5 Ki), on Human α4β2 (setting [3]) and at Rat α4β2 (setting [2]) were 140 nM, 3 nM and 2.3 nM, respectively.

Turning to `CC(C)C(=O)N1CC2CC(C1)N2` [3-isopropylcarbonyl-3,6-diazabicyclo[3.1.1]heptane], the Ki worked out at 830 nM at α6β3β4α5 (α6β3β4α5 Ki), 220 nM at Human α4β2 (setting [1]) and 23 nM at Rat α4β2 (setting [2]).

Consider `O=C([C@H]1C[C@H]1F)N1CC2CC(C1)N2` [drawing 110], for which the results for the inhibition constant Ki on α6β3β4α5 (α6β3β4α5 Ki), on Human α4β2 (setting [1]) and on Rat α4β2 (setting [2]) were 530 nM, 5.2 nM and 1.1 nM, respectively.

As for `O=C([C@H]1C[C@@H]1F)N1CC2CC(C1)N2` [drawing 111], the inhibitory constant (Ki) on α6β3β4α5 (α6β3β4α5 Ki) is 120 nM; on Human α4β2 (setting [1]), 4.5 nM; on Rat α4β2 (setting [2]) it was 0.81 nM.

`C[C@H]1C[C@@H]1C(=O)N1CC2CC(C1)N2` [drawing 157]: the Ki on α6β3β4α5 (α6β3β4α5 Ki) was 2600 nM; at Human α4β2 (setting [1]), 7.6 nM; on Rat α4β2 (setting [2]), 100 nM.

As to `O=C([C@H]1C[C@H]1F)N1CC2CC(C1)N2` [drawing 163], the Ki was found to be 150 nM at α6β3β4α5 (α6β3β4α5 Ki), 1.1 nM at Human α4β2 (setting [3]) and 0.53 nM at Rat α4β2 (setting [2]).

With `O=C([C@H]1C[C@@H]1F)N1CC2CC(C1)N2` [drawing 165], the Ki worked out at 780 nM at α6β3β4α5 (α6β3β4α5 Ki), 4.6 nM on Human α4β2 (setting [1]) and 1.6 nM at Rat α4β2 (setting [2]).

As for `C[C@H]1C[C@@H]1C(=O)N1CC2CC(C1)N2` [drawing 170], the Ki on α6β3β4α5 (α6β3β4α5 Ki) is 1700 nM; on Human α4β2 (setting [1]), 13 nM; on Rat α4β2 (setting [2]), 4.8 nM.
